Measurements: ChEMBL document CHEMBL1146468, “Plakolide A, a new gamma-lactone from the marine sponge Plakortis sp” (J Nat Prod, 2004)
≈ marks a conversion by molar mass, not a printed value.

What was measured:
[1] = system: PANC-1; test: Cytotoxicity against human PANC1 cells after 72 hrs by MTT assay; format: functional, cell-based; settings: PANC-1, 72 h
[2] = Cytotoxicity against human NCI/ADR cells after 72 hrs by MTT assay; format: functional, cell-based; settings: NCI/ADR-RES
[3] = system: A549; test: Cytotoxicity against human A549 cells after 72 hrs by MTT assay; format: functional, cell-based; settings: A549, 72 h
[4] = system: P388; test: Cytotoxicity against mouse P388 cells after 72 hrs by MTT assay; format: functional, cell-based; settings: P388, 72 h
[5] = Cytotoxicity against mouse RAW264.7 cells assessed as cell viability at 1.3 ug/ml after 3 hrs by MTT assay; format: cell-based; settings: read-out: Activity
[6] = biological target: T1, Nitric oxide synthase, inducible (Mus musculus, UniProt P29477); test: Inhibition of iNOS-mediated NO production in LPS-stimulated mouse RAW264.7 cells by Griess method; format: cell-based
T1 sequence (P29477 whole entry): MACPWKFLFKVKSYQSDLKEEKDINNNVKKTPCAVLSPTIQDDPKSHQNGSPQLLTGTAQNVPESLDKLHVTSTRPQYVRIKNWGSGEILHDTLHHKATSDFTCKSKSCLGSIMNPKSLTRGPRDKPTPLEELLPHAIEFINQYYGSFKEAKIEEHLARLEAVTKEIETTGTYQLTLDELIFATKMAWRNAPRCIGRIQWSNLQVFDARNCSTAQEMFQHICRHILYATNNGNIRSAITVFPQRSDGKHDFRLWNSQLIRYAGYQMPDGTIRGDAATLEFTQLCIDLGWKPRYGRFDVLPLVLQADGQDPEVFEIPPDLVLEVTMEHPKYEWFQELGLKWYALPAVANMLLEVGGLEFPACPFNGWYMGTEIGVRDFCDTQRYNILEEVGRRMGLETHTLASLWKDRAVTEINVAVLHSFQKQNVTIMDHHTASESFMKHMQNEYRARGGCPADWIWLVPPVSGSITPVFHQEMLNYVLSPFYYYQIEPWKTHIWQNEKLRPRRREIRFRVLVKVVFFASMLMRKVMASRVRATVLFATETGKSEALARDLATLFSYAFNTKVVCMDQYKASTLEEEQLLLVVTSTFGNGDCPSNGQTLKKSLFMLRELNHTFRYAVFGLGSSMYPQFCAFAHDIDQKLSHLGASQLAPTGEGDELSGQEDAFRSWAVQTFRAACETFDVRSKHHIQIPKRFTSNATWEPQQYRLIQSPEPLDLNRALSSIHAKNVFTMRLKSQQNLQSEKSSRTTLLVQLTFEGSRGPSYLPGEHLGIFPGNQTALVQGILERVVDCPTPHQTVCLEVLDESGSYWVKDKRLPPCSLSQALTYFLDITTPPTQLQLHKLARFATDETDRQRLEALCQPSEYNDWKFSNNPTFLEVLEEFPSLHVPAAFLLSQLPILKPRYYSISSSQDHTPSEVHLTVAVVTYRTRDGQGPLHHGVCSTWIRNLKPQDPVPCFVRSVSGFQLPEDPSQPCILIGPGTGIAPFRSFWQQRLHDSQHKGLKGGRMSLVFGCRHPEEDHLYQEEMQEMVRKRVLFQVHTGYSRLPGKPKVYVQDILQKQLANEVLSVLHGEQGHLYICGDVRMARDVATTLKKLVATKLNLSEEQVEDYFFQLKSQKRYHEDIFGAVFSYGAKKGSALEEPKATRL

For `C=C1C[C@@](C)(/C=C/C=C/CCCCCCCC)OC1=O` [PLAKOLIDE A], which IC50 [1] is on record?
The IC50 was 3.8 µg/mL (≈ 13.7 µM).

And the IC50 [2]?
The IC50 was 3.7 µg/mL (≈ 13.4 µM).

And the IC50 [3]?
Its IC50 is 5 µg/mL (≈ 18.1 µM).

And the IC50 [4]?
Its IC50 is 1.1 µg/mL (≈ 3.98 µM).

And the viability at 3 h, 1.3 ug/ml [5]?
Its viability at 3 h, 1.3 ug/ml is 50%.

What about the IC50 [6] of the same molecule?
The IC50 was 724 nM.
